# Assay results taken from patent publication US6447988B2, “In vitro assay method for the study of brain aging” (The Regents of the University of California, priority 1997, dated 2002).
# Assays:
# hippocampal slices [1] = assay: Western blot analyses of cultured hippocampal slices exposed to ZPAD; type: cell-based, Sprague-Dawley rats; conditions: for replication of ZPAD-induced alterations by more selective inhibitors of cathepsin L: cultured brain slices
# Method: (§1) Hippocampal slices were prepared from 10-13 day-old Sprague-Dawley rats and maintained in culture using the method of Stoppini et al. (1991, supra). Briefly, the hippocampi were dissected in ice-cold artificial cerebrospinal fluid (124 mM NaCl, 10 mM glucose, 3 mM KCl, 1.25 mM KH2PO4, 4 mM MgSO4, 2 mM CaCl2, 26 mM NaHCO3, 2 mM ascorbate, 0.1 mM ascorbate, pH=7.3), and 400 μm thick slices were produced on a McIlwain tissue chopper. One ml of culture media (50% Basal Medium Eagle, 25% Earle's Balance Salt Solution, 25% horse serum), supplemented with 136 mM NaCl, 2 mM CaCl2, 2.5 mM MgSO4, 5 mM NaHCO3 3 mM glutamine, 40 mM glucose, 0.5 mM ascorbic acid, 20 mM HEPES (pH=7.3), 1 mg/L insulin, 5 U/ml penicillin and 5 mg/L streptomycin, was added to each well of a six well culture plate, and inserts containing a polystyrene membrane (pore size: […]) were placed in each well to support the hippocampal sections. Slices were incubated in a humidified, 37° C. atmosphere containing 5% CO2 and maintained in culture for at least nine days before experiments were initiated. Media was replenished on the first day after explantation, and every 2-3 days during the initial culture period. A subset of the hippocampal slices in the six-well culture dishes was exposed to media (as described above, with heat-treated horse serum) containing 30-50 μM ZPAD (BACHEM Bioscience, Inc., Torrance, Calif.). Tissue was harvested after three to six days of continuous ZPAD exposure.
# hippocampal slices [2] = conditions: cited from earlier work
# hippocampal slices [3] = assay: Electron microscopy of cultured hippocampal slices treated with ZPAD; type: cell-based, Sprague-Dawley rats
# Method: as §1
# Furthermore, lysosomes in CA1 and CA3 pyramidal cells were not restricted to the soma but instead were located throughout dendritic processes. Clusters of lysosomes were commonly found within bulging segments of proximal dendrites that were notable for an absence of nicrotubules and neurofilaments. […] These appendages are similar in form and content to structures previously referred to as “meganeurites.” While pyknotic nuclei were sometimes encountered, most of the cells in slices exposed to ZPAD for six days appeared relatively normal. […]
# cathepsin D mRNA = assay: In situ hybridization for cathepsin D mRNA in cultured hippocampal slices; type: cell-based, Sprague-Dawley rats; conditions: four days of exposure to 45 μM ZPAD
# Method: as §1, with “Tissue was harvested after three to six days of continuous ZPAD exposure.” left out
# [4] = chloroquine treatment of long-term hippocampal slices
# [5] = 45 μM ZPAD for six days, electron microscope
compound,measurement,setting,value
N-CBZ-L-phenylalanyl-L-phenylalanine-diazomethylketone,replication of ZPAD-induced alterations by more selective inhibitors of cathepsin L,hippocampal slices [1],replicated several of the ZPAD-induced alterations
C=C(C)[C@H]1CN[C@H](C(=O)O)[C@H]1CC(=O)O [kainic acid],rate of build-up of β-amyloid-containing fragments and loss of synaptophysin,hippocampal slices [2]; pre-treatment with kainic acid before chloroquine,more rapid
CC(C)C[C@H](NC(=O)[C@@H](NC(=O)N[C@@H](Cc1ccccc1)C(=O)O)[C@@H]1CCN=C(N)N1)C(=O)N[C@H](C=O)Cc1ccccc1 [chymostatin],replication of ZPAD-induced alterations by more selective inhibitors of cathepsin L,hippocampal slices [1],replicated several of the ZPAD-induced alterations
CCN(CC)CCCC(C)Nc1ccnc2cc(Cl)ccc12 (centres unmarked) [chloroquine],carboxy-terminal fragments of the amyloid precursor protein (APP),hippocampal slices [2]; [4],appearance
same,synaptophysin,hippocampal slices [2]; [4],loss
N-CBZ-L-phenylalanyl-L-alanine-diazomethylketone [ZPAD],levels of 25-30 kDa fragments of amyloid precursor protein,"hippocampal slices [1]; 45 μM ZPAD for six days, Western blot",increased levels
same,levels of active cathepsin D protein in lysosomal and non-lysosomal (cytosolic) compartments,hippocampal slices [1]; Western blots of subcellular fractions of ZPAD-exposed slices,markedly elevated levels
same,increase in the protein level of cathepsin D,"hippocampal slices [1]; slices exposed to 30-50 μM ZPAD for three to six days, Western blot, p<0.001, n=8",3 fold
same,degradation of cytoskeletal proteins,"hippocampal slices [1]; slices exposed to 30-50 μM ZPAD for three to six days, Western blot, tubulin, spectrin, microtubule-associated protein-2, tau",proteolytic degradation of four cytoskeletal proteins
same,meganeurite formation on CA1 neurons,hippocampal slices [3]; [5],a small percentage of CA1 neurons
same,number of lysosomes in the perikarya of neurons and glia,hippocampal slices [3]; [5],dramatic increase
same,meganeurite-containing CA1 pyramidal cells after washout,"hippocampal slices [3]; ZPAD for six days, then seven additional days in culture without ZPAD",more commonly found
same,"increase in the level of cathepsin D mRNA, CA3 neurons",cathepsin D mRNA; CA3 neurons,56%
same,"increase in the level of cathepsin D mRNA, glial cells of subfield CA1 stratum radiatum",cathepsin D mRNA; p<0.01,71%
